In general, GI50 refers to the concentration at which growth is held to half of that of the control. Higher therefore signals less potent growth inhibition.

Read-outs that look alike come from different tables or passages of the source. Some results are limits rather than exact numbers.

In one test the target is T1, BRAF V600E (Homo sapiens, UniProt P15056+Q96SW2, V600E).
T1 construct: knock-in of the HiBiT tag to the endogenous BRAF V600E locus; host or cells: A375.10 (A375 clonal line, CRISPR HiBiT knock-in at the endogenous BRAF V600E locus)
T1 sequence (P15056 whole entry V600E): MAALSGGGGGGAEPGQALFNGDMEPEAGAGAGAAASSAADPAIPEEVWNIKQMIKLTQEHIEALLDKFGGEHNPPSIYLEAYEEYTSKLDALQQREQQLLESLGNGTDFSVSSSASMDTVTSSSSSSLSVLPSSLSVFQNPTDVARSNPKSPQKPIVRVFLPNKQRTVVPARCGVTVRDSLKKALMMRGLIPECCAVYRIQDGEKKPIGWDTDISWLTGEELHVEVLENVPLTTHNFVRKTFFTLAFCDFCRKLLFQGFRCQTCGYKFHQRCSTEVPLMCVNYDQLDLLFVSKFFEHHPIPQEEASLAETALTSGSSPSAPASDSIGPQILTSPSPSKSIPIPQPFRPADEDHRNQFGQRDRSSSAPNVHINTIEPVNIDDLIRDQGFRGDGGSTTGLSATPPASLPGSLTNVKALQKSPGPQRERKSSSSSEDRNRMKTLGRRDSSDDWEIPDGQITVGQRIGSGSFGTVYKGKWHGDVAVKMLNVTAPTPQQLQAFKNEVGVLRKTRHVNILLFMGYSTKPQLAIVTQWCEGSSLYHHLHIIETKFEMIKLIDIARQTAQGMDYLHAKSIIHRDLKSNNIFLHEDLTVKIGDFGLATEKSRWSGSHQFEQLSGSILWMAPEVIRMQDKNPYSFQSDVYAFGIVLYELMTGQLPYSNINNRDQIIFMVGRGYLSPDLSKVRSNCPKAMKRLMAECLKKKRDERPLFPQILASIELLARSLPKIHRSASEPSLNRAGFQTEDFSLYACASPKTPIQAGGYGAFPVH
T1 sequence (Q96SW2 whole entry): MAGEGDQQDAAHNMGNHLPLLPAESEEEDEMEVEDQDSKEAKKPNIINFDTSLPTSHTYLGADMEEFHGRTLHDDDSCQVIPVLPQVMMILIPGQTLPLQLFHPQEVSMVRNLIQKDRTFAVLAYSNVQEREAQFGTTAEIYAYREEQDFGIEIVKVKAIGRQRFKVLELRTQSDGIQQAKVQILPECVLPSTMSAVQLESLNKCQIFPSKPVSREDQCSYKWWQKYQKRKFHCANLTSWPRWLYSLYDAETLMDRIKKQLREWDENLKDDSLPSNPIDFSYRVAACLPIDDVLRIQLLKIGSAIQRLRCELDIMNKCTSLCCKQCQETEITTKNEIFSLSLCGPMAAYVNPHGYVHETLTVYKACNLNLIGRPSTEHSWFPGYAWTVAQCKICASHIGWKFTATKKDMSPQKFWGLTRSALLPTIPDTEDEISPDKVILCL
T1 sequence (Q16531 whole entry partner): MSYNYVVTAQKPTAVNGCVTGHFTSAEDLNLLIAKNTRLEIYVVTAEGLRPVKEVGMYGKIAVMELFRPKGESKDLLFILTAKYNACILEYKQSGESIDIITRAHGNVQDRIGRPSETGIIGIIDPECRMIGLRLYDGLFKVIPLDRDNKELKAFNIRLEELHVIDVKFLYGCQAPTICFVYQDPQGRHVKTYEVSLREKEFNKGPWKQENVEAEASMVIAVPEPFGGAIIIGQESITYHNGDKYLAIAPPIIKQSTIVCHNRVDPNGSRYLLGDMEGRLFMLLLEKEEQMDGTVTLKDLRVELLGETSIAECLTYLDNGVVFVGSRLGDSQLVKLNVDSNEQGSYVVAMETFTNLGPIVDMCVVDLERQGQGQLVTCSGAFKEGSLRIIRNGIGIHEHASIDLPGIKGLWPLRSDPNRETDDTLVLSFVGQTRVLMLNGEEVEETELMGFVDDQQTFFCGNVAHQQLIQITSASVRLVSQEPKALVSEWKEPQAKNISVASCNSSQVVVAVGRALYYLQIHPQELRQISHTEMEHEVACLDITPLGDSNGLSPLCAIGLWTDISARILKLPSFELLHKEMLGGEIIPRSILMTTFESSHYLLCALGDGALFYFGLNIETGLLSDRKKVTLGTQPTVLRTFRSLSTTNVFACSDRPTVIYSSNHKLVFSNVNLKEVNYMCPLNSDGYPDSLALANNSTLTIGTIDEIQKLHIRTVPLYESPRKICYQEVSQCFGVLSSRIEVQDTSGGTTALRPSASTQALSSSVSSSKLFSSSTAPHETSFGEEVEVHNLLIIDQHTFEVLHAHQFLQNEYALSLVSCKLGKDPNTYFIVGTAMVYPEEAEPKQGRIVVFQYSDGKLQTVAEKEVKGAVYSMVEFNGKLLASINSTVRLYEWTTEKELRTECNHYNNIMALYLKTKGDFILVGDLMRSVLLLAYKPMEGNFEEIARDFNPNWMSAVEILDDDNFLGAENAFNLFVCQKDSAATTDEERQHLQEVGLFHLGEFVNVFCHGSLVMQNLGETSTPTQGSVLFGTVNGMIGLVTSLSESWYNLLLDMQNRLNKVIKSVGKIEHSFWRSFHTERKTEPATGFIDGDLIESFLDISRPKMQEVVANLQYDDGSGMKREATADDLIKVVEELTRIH
Kind of test: BRAF V600E HiBiT Degradation Assay. It is filed as cell-based. The gist of the method: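 Endogenous HiBiT knock-in on BRAF V600E in A375 cells (clone A375.10); 11-point half-log series, top 10 μM, 2, 6 or 24 h at 37° C. Lytic HiBiT luminescence, background-subtracted, normalized to DMSO; 4-parameter fit gives DC50, Emax (residual protein) and IP (inflection point).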

In another test the test system is A375-NRAS^Q61K cells. As to the kind of experiment: CTGlo Cell Viability Assay, A375-NRAS^Q61K (A375.11) cells, 96 hours. The note with it: A375.11 (A375-NRAS^Q61K) cells; for CTGlo A375.11 96 hours Emax / Emax: lowest % viability achieved. It is filed as cell-based, human. The method in brief:
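Viability as CellTiter-Glo ATP luminescence after 96 h compound exposure at 37 °C; A375.11 (BRAF V600E/NRAS Q61K) cells at 250/well, top final concentration 10 μM in half-log steps. Signal was background-corrected and set relative to DMSO controls. A 4-parameter logistic fit gave GI50 (50% crossing) and Emax.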

The mark [1] stands for this setting: A375.10 cells, BRAF V600E, 2 hours; inflection point; read-out: HiBiT-Degradation A375.10 BRAF 2 hours IP.
Where [2] appears, read: A375.10 cells, BRAF V600E, 2 hours; read-out: HiBiT-Degradation A375.10 BRAF 2 hours DC50.
Setting [3] is: A375.10 cells, BRAF V600E, 2 hours; residual protein remaining.
[4] abbreviates: A375.10 cells, BRAF V600E, 2 hours; residual protein remaining; read-out: HiBiT-Degradation A375.10 BRAF 2 hours Emax.

As to `CN(CCO)S(=O)(=O)Nc1ccc(F)c(Oc2ccc3ncn(C4CC5(CCN(C6CCC(c7ccc(NC8CCC(=O)NC8=O)cc7F)CC6)CC5)C4)c(=O)c3c2)c1C#N` (single isomer, unassigned) [Compound 80, 6-[2-cyano-6-fluoro-3-[[2-hydroxyethyl(methyl)sulfamoyl]amino]phenoxy]-3-[7-[4-[4-[(2,6-dioxo-3-piperidyl)amino]-2-fluoro-phenyl]cyclohexyl]-7-azaspiro[3.5]nonan-2-yl]-4-oxo-quinazoline], the DC50 on BRAF V600E (setting [1]) was below 1000 nM. Besides, the DC50 on BRAF V600E (setting [2]) was above 10000 nM. For the same compound, at BRAF V600E (setting [3]), the “HiBiT-Degradation A375.10 BRAF 2 hours Emax” value is “** (<90% and >50%)”. In the test on A375-NRAS^Q61K cells, the GI50 was above 10000 nM; the “CTGlo A375.11 96 hours Emax” value was “** (<90% and >50%)”.
As to `CCN(C)S(=O)(=O)Nc1ccc(F)c(Oc2ccc3ncn(C4CC5(CC(N6CC[C@@H](c7cc8c(cc7F)c(N7CCC(=O)NC7=O)nn8C)C(F)(F)C6)C5)C4)c(=O)c3c2)c1C#N` (stereo partly drawn) [Compound 227, 6-[2-cyano-3-[[ethyl(methyl)sulfamoyl]amino]-6-fluoro-phenoxy]-3-[2-[(4S)-4-[3-(2,4-dioxohexahydropyrimidin-1-yl)-5-fluoro-1-methyl-indazol-6-yl]-3,3-difluoro-1-piperidyl]spiro[3.3]heptan-6-yl]-4-oxo-quinazoline], the DC50 on BRAF V600E (setting [1]) and at BRAF V600E (setting [2]) was below 1000 nM each time. Moreover, the Emax was below 50% on BRAF V600E (setting [4]) and 50 to 90% with A375-NRAS^Q61K cells (Homo sapiens, 96 h). The same compound registered a concentration for 50% growth inhibition (GI50) with A375-NRAS^Q61K cells (Homo sapiens, 96 h) of 1000 to 10000 nM.
For `CCN(C)S(=O)(=O)Nc1ccc(F)c(Oc2ccc3ncn(C4CC5(CCC(N6CC[C@H](c7cc8c(cc7F)c(N7CCC(=O)NC7=O)nn8C)C(F)(F)C6)CC5)C4)c(=O)c3c2)c1C#N` (stereo partly drawn) [Compound 224, 6-[2-cyano-3-[[ethyl(methyl)sulfamoyl]amino]-6-fluoro-phenoxy]-3-[7-[(4R)-4-[3-(2,4-dioxohexahydropyrimidin-1-yl)-5-fluoro-1-methyl-indazol-6-yl]-3,3-difluoro-1-piperidyl]spiro[3.5]nonan-2-yl]-4-oxo-quinazoline], the DC50 at BRAF V600E (setting [1]) and on BRAF V600E (setting [2]) was below 1000 nM in each case. The Emax at BRAF V600E (setting [4]) was below 50%; in the test with A375-NRAS^Q61K cells (Homo sapiens, 96 h), 50 to 90%. In the test on A375-NRAS^Q61K cells (Homo sapiens, 96 h), the GI50 was below 1000 nM.
For `CN(CCO)S(=O)(=O)Nc1ccc(F)c(Oc2ccc3ncc([C@@H]4COC5(CCN(C6CCC(c7cc8c(cc7F)c(N7CCC(=O)NC7=O)nn8C)CC6F)CC5)C4)nc3c2)c1C#N` (single isomer, unassigned) [Compound 172], the DC50 on BRAF V600E (setting [1]) is below 1000 nM; on BRAF V600E (setting [2]), above 10000 nM. Further, the Emax on BRAF V600E (setting [4]) lay in the range of 50 to 90%; in the test with A375-NRAS^Q61K cells (Homo sapiens, 96 h) it was 50 to 90%. Also, the GI50 with A375-NRAS^Q61K cells (Homo sapiens, 96 h) was 1000 to 10000 nM.
Take `CCN(C)S(=O)(=O)Nc1ccc(F)c(Oc2ccc3ncn(C4CC5(CCN(C6CCC(c7ccc(NC8CCC(=O)NC8=O)cc7F)CC6)CC5)C4)c(=O)c3c2)c1F` (single isomer, unassigned) [Compound 167, 3-[7-[4-[4-[(2,6-dioxo-3-piperidyl)amino]-2-fluoro-phenyl]cyclohexyl]-7-azaspiro[3.5]nonan-2-yl]-6-[3-[[ethyl(methyl)sulfamoyl]amino]-2,6-difluoro-phenoxy]-4-oxo-quinazoline]: the DC50 on BRAF V600E (setting [1]) was below 1000 nM. For the same compound, on BRAF V600E (setting [2]), the DC50 is above 10000 nM. Further, the “HiBiT-Degradation A375.10 BRAF 2 hours Emax” value at BRAF V600E (setting [3]) is “** (<90% and >50%)”. For the same compound, in the test with A375-NRAS^Q61K cells, the GI50 lay in the range of 1000 to 10000 nM; the “CTGlo A375.11 96 hours Emax” value is “** (<90% and >50%)”.
As for `CCN(C)S(=O)(=O)Nc1ccc(F)c(Oc2ccc3ncn(C4CCC(N5CC6(CCN(c7cc8c(cc7F)c(N7CCC(=O)NC7=O)nn8C)CC6)C5)CC4)c(=O)c3c2)c1C#N` (single isomer, unassigned) [Compound 222, 6-[2-cyano-3-[[ethyl(methyl)sulfamoyl]amino]-6-fluoro-phenoxy]-3-[4-[7-[3-(2,4-dioxohexahydropyrimidin-1-yl)-5-fluoro-1-methyl-indazol-6-yl]-2,7-diazaspiro[3.5]nonan-2-yl]cyclohexyl]-4-oxo-quinazoline], the DC50 at BRAF V600E (setting [1]) was below 1000 nM. Moreover, at BRAF V600E (setting [2]), the DC50 was below 1000 nM. The “HiBiT-Degradation A375.10 BRAF 2 hours Emax” value on BRAF V600E (setting [3]) was “*** (<=50%)”. Besides, in the test on A375-NRAS^Q61K cells, the GI50 is below 1000 nM; the “CTGlo A375.11 96 hours Emax” value was “** (<90% and >50%)”.
As for `CCN(C)S(=O)(=O)Nc1ccc(F)c(Oc2ccc3ncc(OCC4(O)CCN(C5CCC(c6cc7c(cc6F)c(N6CCC(=O)NC6=O)nn7C)CC5)CC4)nc3c2)c1C#N` (single isomer, unassigned) [Compound 196, 7-[2-cyano-3-[[ethyl(methyl)sulfamoyl]amino]-6-fluoro-phenoxy]-2-[[1-[4-[3-(2,4-dioxohexahydropyrimidin-1-yl)-5-fluoro-1-methyl-indazol-6-yl]cyclohexyl]-4-hydroxy-4-piperidyl]methoxy]quinoxaline], the DC50 on BRAF V600E (setting [1]) and at BRAF V600E (setting [2]) was below 1000 nM each time. Also, the “HiBiT-Degradation A375.10 BRAF 2 hours Emax” value at BRAF V600E (setting [3]) was “*** (<=50%)”. Moreover, the GI50 in the test on A375-NRAS^Q61K cells is below 1000 nM. Further, the “CTGlo A375.11 96 hours Emax” value in the test with A375-NRAS^Q61K cells is “** (<90% and >50%)”.
`Cn1nc(N2CCC(=O)NC2=O)c2cc(F)c(N3CC4(CC(N5CCC6(CC5)C[C@@H](n5cnc7ccc(Oc8c(F)ccc(NS(=O)(=O)N9CCC%10(CC%10)C9)c8C#N)cc7c5=O)CO6)C4)C3)cc21` [Compound 245, N-[2-cyano-3-[3-[(3R)-8-[2-[3-(2,4-dioxohexahydropyrimidin-1-yl)-5-fluoro-1-methyl-indazol-6-yl]-2-azaspiro[3.3]heptan-6-yl]-1-oxa-8-azaspiro[4.5]decan-3-yl]-4-oxo-quinazolin-6-yl]oxy-4-fluoro-phenyl]-5-azaspiro[2.4]heptane-5-sulfonamide]: the Emax on BRAF V600E (setting [4]) fell in the range of 50 to 90%; in the test on A375-NRAS^Q61K cells (Homo sapiens, 96 h) it was 50 to 90%. Further, the DC50 is below 1000 nM at BRAF V600E (read-out: HiBiT-Degradation A375.10 BRAF 2 hours DC50; A375.10 cells, BRAF V600E, 2 hours) and below 1000 nM on BRAF V600E (read-out: HiBiT-Degradation A375.10 BRAF 2 hours IP; A375.10 cells, BRAF V600E, 2 hours; inflection point). Further, the GI50 with A375-NRAS^Q61K cells (Homo sapiens, 96 h) is below 1000 nM.
As to `CCN(C)S(=O)(=O)Nc1ccc(F)c(Oc2ccc3ncn(C4CC5(CCN(C6CCN(c7cc8c(cc7F)c(N7CCC(=O)NC7=O)nn8C)CC6)C5)C4)c(=O)c3c2)c1C#N` (single isomer, unassigned) [Compound 307, 6-[2-cyano-3-[[ethyl(methyl)sulfamoyl]amino]-6-fluoro-phenoxy]-3-[6-[1-[3-(2,4-dioxohexahydropyrimidin-1-yl)-5-fluoro-1-methyl-indazol-6-yl]-4-piperidyl]-6-azaspiro[3.4]octan-2-yl]-4-oxo-quinazoline], the DC50 at BRAF V600E (setting [1]) is below 1000 nM; at BRAF V600E (setting [2]), 1000 to 10000 nM. The Emax on BRAF V600E (setting [4]) lay in the range of 50 to 90%; in the test on A375-NRAS^Q61K cells (Homo sapiens, 96 h), 50 to 90%. Besides, the GI50 with A375-NRAS^Q61K cells (Homo sapiens, 96 h) was 1000 to 10000 nM.
Regarding `CCN(C)S(=O)(=O)Nc1ccc(F)c(Oc2ccc3ncn(C4CCN(C5CC6(CCN(c7cc8c(cc7F)c(N7CCC(=O)NC7=O)nn8C)CC6)C5)CC4)c(=O)c3c2)c1C#N` [Compound 274, 6-[2-cyano-3-[[ethyl(methyl)sulfamoyl]amino]-6-fluoro-phenoxy]-3-[1-[7-[3-(2,4-dioxohexahydropyrimidin-1-yl)-5-fluoro-1-methyl-indazol-6-yl]-7-azaspiro[3.5]nonan-2-yl]-4-piperidyl]-4-oxo-quinazoline], the DC50 on BRAF V600E (setting [1]) and at BRAF V600E (setting [2]) was below 1000 nM in each case. In addition, the Emax at BRAF V600E (setting [4]) was below 50%; with A375-NRAS^Q61K cells (Homo sapiens, 96 h) it was below 50%. The compound further yielded a GI50 in the test on A375-NRAS^Q61K cells (Homo sapiens, 96 h) below 1000 nM.

For the origin of these results see patent publication US20260297060A1, “COMPOUNDS FOR THE DEGRADATION OF MUTANT BRAF” (C4 THERAPEUTICS, INC., priority 2023, published 2026).
